pIC50: −log10 of the molar value.
Molecular target: DNA damage-binding protein 1/Protein cereblon (Homo sapiens, UniProt Q96SW2)
Experiment: CRBN Fluorescence Polarization Assay
Procedure: In this competitive fluorescent polarization assay Cy5 conjugated lenalidomide analog (Cy5-O-Len)13 was used as a fluorescent probe. 6×His-CRBN-DDB1 protein (200 nM) and Cy5-O-Len probe (30 nM) were combined in 20 mM HEPES pH 7, 150 mM NaCl, 0.005% Tween-20 assay buffer. 20 μL of this assay cocktail was dispensed into wells of Corning 3821 black 384-well plates. Compounds were transferred to the assay plate from a dose-response plate using a Pintool on a Biomek FXP Laboratory Automation Workstation (Beckman Coulter). The plates were incubated in the dark for 1 hour at room temperature and then read on an Envision plate reader (PerkinElmer, Massachusetts, USA). IC50 values were determined using a proprietary software RISE (Robust Investigation of Screening Experiments), developed in house on the Pipeline Pilot platform (Biovia, v. 17.2.0). Data represent the mean of three independent determinations.

With O=C1CCC(N2Cc3cc(NC(=O)Cc4ccccn4)ccc3C2=O)C(=O)N1 (stereo unspecified) [US20260014133, Compound 28] the pIC50 was > 6.00.

Reference: BindingDB's records for patent US20260014133 (St. Jude''s Chidren''s Research Hospital, Inc., 2026)
